In US20060100140A1, “Combination of a) n-{5-[4-(4-methyl-piperazino-methyl)-benzoylamido]2-methylphenyl}-4- (3-pyridyl)-2-pyrimidine-amine and b) a histone deacetylase inhibitor for the treatment of leukemia” (priority 2002, published 2006):

Tests used:
Assay type in all cases: cell-based, human
LAMA 84 cells = test: Apoptosis by cytospin slides
Procedure: Experimental Format: Logarithmically growing cells are placed in sterile plastic T-flasks (Corning, Corning, N.Y.) to which are added the designated drugs and the flasks replaced in the incubator for intervals. At the end of the incubation period, cells are transferred to sterile centrifuge tubes, pelleted by centrifugation at 400×g for 10 min at room temperature, and prepared for analysis as described below.
(§1) Assessment of Apoptosis: After drug exposures, cytocentrifuge preparations are stained with Wright-Giemsa and viewed by light microscopy to evaluate the extent of apoptosis (i.e., cell shrinkage, nuclear condensation, formation of apoptotic bodies, etc.) as described previously (Yu et al., Nat. Rev. Cancer 1:294-202). For these studies, the percentage of apoptotic cells is determined by evaluating ≧500 cells/condition in triplicate. To confirm the results of morphological analysis, Annexin V/PI staining is used. Annexin V/PI (BD PharMingen, San Diego, Calif.) analysis of cell death is carried out as per the manufacturer's instructions. In studies involving TNF and TNF soluble receptor, both compound are combined and maintained at room temperature 20 min prior to use. For these experiments 1-2×10^5 cells per condition are harvested. Analysis is carried out using a Becton-Dickinson FACScan cytofluorometer (Mansfield, Mass.). To further confirm the morphology results, TUNEL staining is used. For TUNEL staining, cytocentrifuge preparations are obtained and fixed with 4% formaldehyde. The slides are treated with acetic acid/ethanol (1:2), stained with terminal transferase reaction mixture containing 1× terminal transferase reaction buffer (0.25 units/μl terminal transferase, 2.5 mM CoCl2, and 2 pmol fluorescein-12-dUTM; Boehringer Mannheim, Indianapolis, Ind.), and visualized using fluorescence microscopy.

K562 cells = test: Erythroid differentiation by hemoglobin (Hgb) production; details: 2.0 μM SAHA ± 250 nM Compound I
Source text: In each case, values represent the means±S.D. for three separate experiments.

[1] = test system: Compound I-resistant K562 cells (K562R); test: Apoptosis by Wright Giemsa-stained cytospin slides in resistant cells; details: Table 7, 24 hr, Compound I (1.0 or 1.25 μM), SAHA (1.0 or 2.0)
Procedure: as §1, with “For TUNEL staining, cytocentrifuge preparations are obtained and fixed with 4% formaldehyde.” left out

[2] = test system: K562 cells transfected with GFP/constitutively active MEK1/2 fusion cDNA; test: Apoptosis in sorted transiently transfected cells; details: Table 8; GFP/MEK; 2.0 μM SAHA ± 250 nM Compound I for 24 hr
Procedure: as §1, with “In studies involving TNF and TNF soluble receptor, both compound are combined and maintained at room temperature 20 min prior to use. For these experiments 1-2×10^5 cells per condition are harvested. Analysis is carried out using a Becton-Dickinson FACScan cytofluorometer (Mansfield, Mass.). To further confirm the morphology results, TUNEL staining is used. For TUNEL staining, cytocentrifuge preparations are obtained and fixed with 4% formaldehyde.” left out
(§2) Transient transfections: Plasmids encoding enhanced green fluorescence protein under the transciptional control of the human cytomegalovirus (CMV) immediate-early promoter (pEGFP-C2), and HA-tagged activated MEK1 (S218D/S222D in pUSEEamp) are obtained from Clontech Laboratories (Palo Alto, Calif.) and Upstate Biotechnology (Lake Placid, N.Y.), respectively.

[3] = test system: K562 cells transfected with GFP alone; test: Apoptosis in sorted transiently transfected cells; details: Table 8, 2.0 μM SAHA ± 250 nM Compound I for 24 hr
Procedure: as §1, with “In studies involving TNF and TNF soluble receptor, both compound are combined and maintained at room temperature 20 min prior to use. For these experiments 1-2×10^5 cells per condition are harvested. Analysis is carried out using a Becton-Dickinson FACScan cytofluorometer (Mansfield, Mass.). To further confirm the morphology results, TUNEL staining is used. For TUNEL staining, cytocentrifuge preparations are obtained and fixed with 4% formaldehyde.” left out
as §2

Structure (SMILES) | Compound I + SB % of apoptotic cells (LAMA 84 cells; Table 6, LAMA 84, 24 hr, sodium butyrate (SB; 1 or 2 mM), Compound I concentration not given) [%] | cell death (LAMA 84 cells; sensitive LAMA 84, Compound I (1.0 or 1.25 μM) for 48 hr, data not shown) [%] | increase in Hgb production (K562 cells; 24-hr exposure) [%] | Hgb production (K562 cells; 48 hr, data not shown) | Compound I + SAHA % of apoptotic cells [1] [%] | apoptosis [2] [%] | apoptosis [3] [%]
Cc1ccc(NC(=O)c2ccc(CN3CCN(C)CC3)cc2)cc1Nc1nccc(-c2cccnc2)n1 [Compound I, N-{5-[4-(4-methyl-piperazino-methyl)-benzoylamido]-2-methylphenyl}-4-(3-pyridyl)-2-pyrimidine-amine] | 9.3 ± 3.8 | ~100 |  |  |  |  | 
O=C(CCCCCCC(=O)Nc1ccccc1)NO [SAHA, suberoylanilide hydroxamic acid] |  |  | ~50 | substantial increases | 6.8 ± 3.5 | 19.8 ± 2.1 | 22.5 ± 2.6
